Measured values: patent US12643896B2, “Dicyclopropylmethyl derivatives as IL-17 modulators” (UCB Biopharma SRL, priority 2020, dated 2026)

Molecular target: T1, IL-17A (Homo sapiens, UniProt Q16552)
T1 sequence (Q16552 24-155): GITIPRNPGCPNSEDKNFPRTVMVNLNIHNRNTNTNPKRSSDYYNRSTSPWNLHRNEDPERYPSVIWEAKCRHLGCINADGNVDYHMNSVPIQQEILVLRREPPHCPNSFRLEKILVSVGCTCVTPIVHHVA
Assay: Inhibition of IL-17A induced IL-6 release from dermal fibroblast cell line (HDF cell line assay)
Assay type: cell-based
Settings: human dermal fibroblasts (HDF) stimulated with IL-17A 50 pM + TNF-α 25 pM; IL-6 measured by HTRF; pIC50 = −log10[IC50], IC50 molar
Text: Inhibition of IL-17A Induced IL-6 Release from Dermal Fibroblast Cell Line
The purpose of this assay is to test the neutralising ability to IL-17 proteins, in a human primary cell system. Stimulation of normal human dermal fibroblasts (HDF) with IL-17 alone produces only a very weak signal but in combination with certain other cytokines, such as TNFα, a synergistic effect can be seen in the production of inflammatory cytokines, i.e. IL-6.
HDFs were stimulated with IL-17A (50 pM) in combination with TNF-α (25 pM). The resultant IL-6 response was then measured using a homogenous time-resolved FRET kit from Cisbio. The kit utilises two monoclonal antibodies, one labelled with Eu-Cryptate (Donor) and the second with d2 or XL665 (Acceptor). The intensity of the signal is proportional to the concentration of IL-6 present in the sample (Ratio is calculated by 665/620×104).
The ability of a compound to inhibit IL-17 induced IL-6 release from human dermal fibroblasts is measured in this assay.
HDF cells (Sigma #106-05n) were cultured in complete media (DMEM+10% FCS+2 mM L-glutamine) and maintained in a tissue culture flask using standard techniques. Cells were harvested from the tissue culture flask on the morning of the assay using TrypLE (Invitrogen #12605036). The TrypLE was neutralised using complete medium (45 mL) and the cells were centrifuged at 300×g for 3 minutes. The cells were re-suspended in complete media (5 mL) counted and adjusted to a concentration of 3.125×10^4 cells/mL before being added to the 384 well assay plate (Corning #3701) at 40 μL per well. The cells were left for a minimum of three hours, at 37° C./5% CO2, to adhere to the plate.
Compounds were serially diluted in DMSO before receiving an aqueous dilution into a 384 well dilution plate (Greiner #781281), where 5 μL from the titration plate was transferred to 45 μL of complete media and mixed to give a solution containing 10% DMSO.
Mixtures of TNFα and IL-17 cytokine were prepared in complete media to final concentrations of TNFα 25 pM/IL-17A 50 pM, then 30 μL of the solution was added to a 384 well reagent plate (Greiner #781281).
10 μL from the aqueous dilution plate was transferred to the reagent plate containing 30 μL of the diluted cytokines, to give a 2.5% DMSO solution. The compounds were incubated with the cytokine mixtures for 5 h at 37° C. After the incubation, 10 μL was transferred to the assay plate, to give a 0.5% DMSO solution, then incubated for 18-20 h at 37° C./5% CO2.
From the Cisbio IL-6 FRET kit (Cisbio #62IL6PEB) europium cryptate and Alexa 665 were diluted in reconstitution buffer and mixed 1:1, as per kit insert. To a white low volume 384 well plate (Greiner #784075) were added FRET reagents (10 μL), then supernatant (10 μL) was transferred from the assay plate to Greiner reagent plate. The mixture was incubated at room temperature for 3 h with gentle shaking (<400 rpm) before being read on a Synergy Neo 2 plate reader (Excitation: 330 nm; Emission: […]).

IC50 [nM]	SMILES
15800	Cc1nonc1C(=O)N[C@@H](c1nc2nc([C@H]3CC(F)(F)CCN3C(=O)C34CC(F)(C3)C4)ccc2[nH]1)C(C1CC1)C1CC1 (single isomer, unassigned) [Example 3]
3160	Cc1nonc1C(=O)N[C@@H](c1nc2nc([C@@H]3CC(F)(F)CCN3C(=O)C34CC(F)(C3)C4)ccc2[nH]1)C(C1CC1)C1CC1 (single isomer, unassigned) [Example 4]
398	Cc1nonc1C(=O)N[C@H](c1nc2nc([C@H]3CC(F)(F)CCN3C(=O)C34CC(F)(C3)C4)ccc2[nH]1)C(C1CC1)C1CC1 (single isomer, unassigned) [Example 5]
12.6	Cc1nonc1C(=O)N[C@H](c1nc2nc([C@@H]3CC(F)(F)CCN3C(=O)C34CC(F)(C3)C4)ccc2[nH]1)C(C1CC1)C1CC1 (single isomer, unassigned) [Example 6]
2510	Cc1nonc1C(=O)N[C@H](c1nc2nc([C@H]3C[C@](O)(C(F)(F)F)CCN3C(=O)C34CC(F)(C3)C4)ccc2[nH]1)C(C1CC1)C1CC1 (single isomer, unassigned) [Example 7]
7.94	Cc1nonc1C(=O)N[C@H](c1nc2nc([C@@H]3C[C@@](O)(C(F)(F)F)CCN3C(=O)C34CC(F)(C3)C4)ccc2[nH]1)C(C1CC1)C1CC1 (single isomer, unassigned) [Example 8]
> 10000	Cc1nonc1C(=O)N[C@@H](c1nc2nc([C@H]3C[C@](O)(C(F)(F)F)CCN3C(=O)C34CC(F)(C3)C4)ccc2[nH]1)C(C1CC1)C1CC1 (single isomer, unassigned) [Example 9]
5.01	O=C(N[C@H](c1nc2nc([C@@H]3C[C@@](O)(C(F)F)CCN3C(=O)C34CC(F)(C3)C4)ccc2[nH]1)C(C1CC1)C1CC1)C1(F)CC1 (single isomer, unassigned) [Example 11]
794	O=C(N[C@H](c1nc2nc([C@H]3C[C@](O)(C(F)F)CCN3C(=O)C34CC(F)(C3)C4)ccc2[nH]1)C(C1CC1)C1CC1)C1(F)CC1 (single isomer, unassigned) [Example 12]
63.1	O=C(N1CCC(F)(F)CC1c1ccc2[nH]c(C(NC(=O)C3(C(F)(F)F)CC3)C(C3CC3)C3CC3)nc2n1)C12CC(F)(C1)C2 (centres unmarked) [Example 1, N-(2,2-Dicyclopropyl-1-{5-[4,4-difluoro-1-(3-fluorobicyclo[1.1.1]pentane-1-carbonyl)-piperidin-2-yl]-1H-imidazo[4,5-b]pyridin-2-yl}ethyl)-1-(trifluoromethyl)cyclopropane-carboxamide]
63.1	Cc1nonc1C(=O)NC(c1nc2nc(C3CC(F)(F)CCN3C(=O)C34CC(F)(C3)C4)ccc2[nH]1)C(C1CC1)C1CC1 (centres unmarked) [Example 2, N-(2,2-Dicyclopropyl-1-{5-[4,4-difluoro-1-(3-fluorobicyclo[1.1.1]pentane-1-carbonyl)-piperidin-2-yl]-1H-imidazo[4,5-b]pyridin-2-yl}ethyl)-4-methyl-1,2,5-oxadiazole-3-carboxamide]
